The record followed here is patent US8946203B2, “Benzodioxane inhibitors of leukotriene production” (Boehringer Ingelheim International GmbH, priority 2012, dated 2015).

The structures appear in SMILES notation. Where two headings read alike, the source gives them in different places.

In assay [1] the test system is synthesis of LTB4 in human whole blood. The experiment in a line: human whole blood (HWB) assay, LTB4 production inhibition after calcimycin stimulation. Format: cell-based. The note with it: heparinized human whole blood, calcimycin 20 μM, plasma LTB4 by HTRF. Summed up: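 Heparinized human whole blood preincubated with compound 15 min at 37 °C, then stimulated with 20 μM (final) calcimycin for 30 min at 37 °C. Plasma LTB4 measured by antibody-based HTRF; IC50 reported.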
(In TR-FRET formats the signal depends on donor and acceptor labels being close together.)

In the next assay the target is T1, human LTA4 hydrolase (Homo sapiens, UniProt P09960).
T1 sequence (P09960 1-611): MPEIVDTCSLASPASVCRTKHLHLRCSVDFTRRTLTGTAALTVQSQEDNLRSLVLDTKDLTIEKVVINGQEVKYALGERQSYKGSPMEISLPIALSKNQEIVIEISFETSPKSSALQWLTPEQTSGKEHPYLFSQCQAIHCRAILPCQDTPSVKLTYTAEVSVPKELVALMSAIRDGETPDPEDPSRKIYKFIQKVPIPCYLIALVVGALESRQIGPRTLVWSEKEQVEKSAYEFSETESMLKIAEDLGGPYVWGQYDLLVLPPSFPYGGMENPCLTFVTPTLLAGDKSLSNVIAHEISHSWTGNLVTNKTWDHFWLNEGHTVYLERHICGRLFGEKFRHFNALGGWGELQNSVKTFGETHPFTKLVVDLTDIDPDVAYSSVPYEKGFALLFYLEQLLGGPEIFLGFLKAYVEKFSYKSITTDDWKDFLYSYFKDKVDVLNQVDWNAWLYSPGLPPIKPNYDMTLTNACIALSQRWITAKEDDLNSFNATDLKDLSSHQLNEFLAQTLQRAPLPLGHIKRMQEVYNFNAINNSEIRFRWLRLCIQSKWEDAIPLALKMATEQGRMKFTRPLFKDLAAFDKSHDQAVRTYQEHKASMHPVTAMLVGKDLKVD
The assay can be described thus: LTA4H Enzyme assay (cleavage of Arg-AMC, fluorescence). Format: biochemical. Summed up: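 Peptidase activity of human LTA4H (1 nM final) on Arg-AMC (50 μM final), with compound, 1 h at room temperature. Buffer: 50 mM Tris-HCl pH 7.5, 100 mM KCl, 0.5% BSA.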

Where [2] appears, read: LTA4H Enzyme 1 nM, Arg-AMC substrate 50 μM, room temperature 1 h, fluorescence, read-out: IC50 values of LTA4H Enzyme assay.

Usually IC50 stands for the point on the concentration scale where inhibition reaches its midpoint. Turning to `CN[C@H](C)C(=O)NC1CCN(Cc2ccc([C@H]3COc4cccnc4O3)cc2)CC1` [Example 261, (R)-N-{1-[(S)-4-(2,3-Dihydro-[1,4]dioxino[2,3-b]pyridin-3-yl)-benzyl]-piperidin-4-yl}-2-methylamino-propionamide], the IC50 was 260 nM in assay [1] and 2.5 nM on human LTA4 hydrolase (setting [2]).
With `CC(C)(O)C(=O)NCC1CCN(Cc2ccc([C@H]3COc4cccnc4O3)cc2)CC1` [Example 262, N-{1-[(S)-4-(2,3-Dihydro-[1,4]dioxino[2,3-b]pyridin-3-yl)-benzyl]-piperidin-4-ylmethyl}-2-hydroxy-2-methyl-propionamide], the IC50 amounted to 170 nM in assay [1] and 0.51 nM at human LTA4 hydrolase (setting [2]).
As to `CS(=O)(=O)NC[C@@H]1[C@H]2CN(Cc3ccc([C@H]4COc5cccnc5O4)cc3)C[C@@H]12` [Example 263, N-{(1α,5α,6α)-3-[(S)-4-(2,3-Dihydro-[1,4]dioxino[2,3-b]pyridin-3-yl)-benzyl]-3-aza-bicyclo[3.1.0]hex-6-ylmethyl}-methanesulfonamide], the IC50 in assay [1] is 130 nM; at human LTA4 hydrolase (setting [2]), 0.49 nM.
Consider `CC(=O)N1C[C@@H]2CC[C@H]1CN2Cc1ccc([C@H]2COc3cccnc3O2)cc1` [Example 264, 1-{(1S,4S)-5-[(S)-4-(2,3-Dihydro-[1,4]dioxino[2,3-b]pyridin-3-yl)-benzyl]-2,5-diaza-bicyclo[2.2.2]oct-2-yl}-ethanone], for which the IC50 in assay [1] is 17 nM; on human LTA4 hydrolase (setting [2]), 0.09 nM.
In the same order, the values of `O=C(O)C1CCC(C2CCN(Cc3ccc([C@H]4COc5cccnc5O4)cc3)CC2)CC1` (stereo partly drawn) [Example 265, 4-{1-[(S)-4-(2,3-Dihydro-[1,4]dioxino[2,3-b]pyridin-3-yl)-benzyl]-piperidin-4-yl}-cyclohexanecarboxylic acid] are 150 nM and 0.16 nM.
With `O=C(O)C1CCCN(Cc2ccc([C@H]3COc4ccccc4O3)cc2)CC1` (stereo partly drawn) [Example 266, 1-[(S)-4-(2,3-Dihydro-benzo[1,4]dioxin-2-yl)-benzyl]-azepane-4-carboxylic acid], the IC50 in assay [1] was found to be 98 nM; on human LTA4 hydrolase (setting [2]) it was 0.22 nM.
As to `O=C(O)[C@H]1[C@@H]2CN(Cc3ccc([C@H]4COc5ccccc5O4)cc3)C[C@@H]21` [Example 267, [(1α,5α,6α)-3-[(S)-4-(2,3-Dihydro-benzo[1,4]dioxin-2-yl)-benzyl]-3-aza-bicyclo[3.1.0]hexane]-6-carboxylic acid], the IC50 in assay [1] stood at 73 nM; at human LTA4 hydrolase (setting [2]), 0.3 nM.
In the case of `NC(=O)N1C[C@@H]2C[C@H]1CN2Cc1ccc([C@H]2COc3cccnc3O2)cc1` [Example 268, (1S,4S)-5-[(S)-4-(2,3-Dihydro-[1,4]dioxino[2,3-b]pyridin-3-yl)-benzyl]-2,5-diaza-bicyclo[2.2.1]heptane-2-carboxylic acid amide], the IC50 in assay [1] is 66 nM; on human LTA4 hydrolase (setting [2]), 0.11 nM.
For `OC1(c2ccccc2)CCN(Cc2ccc([C@H]3COc4cccnc4O3)cc2)CC1` [Example 269, 1-[(S)-4-(2,3-Dihydro-[1,4]dioxino[2,3-b]pyridin-3-yl)-benzyl]-4-phenyl-piperidin-4-ol], the IC50 was 36 nM in assay [1] and 0.2 nM at human LTA4 hydrolase (setting [2]).
In the same order, the values of `CC(=O)N1CC2CN(Cc3ccc([C@H]4COc5cccnc5O4)cc3)CC2C1` (stereo partly drawn) [Example 270, 1-{5-[(S)-4-(2,3-Dihydro-[1,4]dioxino[2,3-b]pyridin-3-yl)-benzyl]-hexahydro-pyrrolo[3,4-c]pyrrol-2-yl}-ethanone] are 35 nM and 0.14 nM.
Turning to `CC(=O)N1CC2CCC(C1)N2Cc1ccc([C@H]2COc3cccnc3O2)cc1` [Example 271, 1-{8-[(S)-4-(2,3-Dihydro-[1,4]dioxino[2,3-b]pyridin-3-yl)-benzyl]-3,8-diaza-bicyclo[3.2.1]oct-3-yl}-ethanone], the IC50 came to 110 nM in assay [1] and 0.65 nM at human LTA4 hydrolase (setting [2]).
On to `NC(=O)N1CC2CN(Cc3ccc([C@H]4COc5cccnc5O4)cc3)CC2C1` (stereo partly drawn) [Example 272, 5-[(S)-4-(2,3-Dihydro-[1,4]dioxino[2,3-b]pyridin-3-yl)-benzyl]-hexahydro-pyrrolo[3,4-c]pyrrole-2-carboxylic acid amide], for which the IC50 was 71 nM in assay [1] and 0.09 nM at human LTA4 hydrolase (setting [2]).
Turning to `NC(=O)N[C@@H]1C[C@H]2CC[C@@H](C1)N2Cc1ccc([C@H]2COc3cccnc3O2)cc1` [Example 273, {(exo)-8-[(S)-4-(2,3-Dihydro-[1,4]dioxino[2,3-b]pyridin-3-yl)-benzyl]-8-aza-bicyclo[3.2.1]oct-3-yl}-urea], the half-inhibitory concentration (IC50) was 110 nM in assay [1] and 0.16 nM against human LTA4 hydrolase.
`NC(=O)COC1CCN(Cc2ccc([C@H]3COc4cccnc4O3)cc2)CC1` [Example 274, 2-{1-[(S)-4-(2,3-Dihydro-[1,4]dioxino[2,3-b]pyridin-3-yl)-benzyl]-piperidin-4-yloxy}-acetamide]: the IC50 in assay [1] stood at 100 nM; on human LTA4 hydrolase (setting [2]), 0.15 nM.
The matching figures for `O=S1(=O)CCCN(Cc2ccc([C@H]3COc4cccnc4O3)cc2)CC1` [Example 275, (S)-3-[4-(1,1-Dioxo-1lambda6-[1,4]thiazepan-4-ylmethyl)-phenyl]-2,3-dihydro-[1,4]dioxino[2,3-b]pyridine]: 170 nM and 0.7 nM.
The matching figures for `CC1(O)CCN(Cc2ccc([C@H]3COc4cccnc4O3)cc2)CC1` [Example 276, 1-[(S)-4-(2,3-Dihydro-[1,4]dioxino[2,3-b]pyridin-3-yl)-benzyl]-4-methyl-piperidin-4-ol]: 240 nM and 1.2 nM.
`O=C(CO)N1C[C@@H]2C[C@H]1CN2Cc1ccc([C@H]2COc3cccnc3O2)cc1` [Example 277, 1-{(1S,4S)-5-[(S)-4-(2,3-Dihydro-[1,4]dioxino[2,3-b]pyridin-3-yl)-benzyl]-2,5-diaza-bicyclo[2.2.1]hept-2-yl}-2-hydroxy-ethanone]: the results for the IC50 (in assay [1]; on human LTA4 hydrolase (setting [2])) were 65 nM and 0.3 nM, respectively.
As to `CC(=O)N[C@H]1C[C@H]2CC[C@@H](C1)N2Cc1ccc([C@H]2COc3cccnc3O2)cc1` [Example 278, N-{(endo)-8-[(S)-4-(2,3-Dihydro-[1,4]dioxino[2,3-b]pyridin-3-yl)-benzyl]-8-aza-bicyclo[3.2.1]oct-3-yl}-acetamide], the values for the IC50 (in assay [1]; at human LTA4 hydrolase (setting [2])) were 73 nM and 0.26 nM, respectively.
Turning to `CC(=O)NCC1CCN(Cc2ccc([C@H]3COc4cccnc4O3)cc2)CC1` [Example 279, N-{1-[(S)-4-(2,3-Dihydro-[1,4]dioxino[2,3-b]pyridin-3-yl)-benzyl]-piperidin-4-ylmethyl}-acetamide], the IC50 in assay [1] turned out to be 93 nM; at human LTA4 hydrolase (setting [2]), 0.34 nM.
As for `CN(Cc1ccc([C@H]2COc3cccnc3O2)cc1)C1CCS(=O)(=O)C1` (stereo partly drawn) [Example 280, [(S)-4-(2,3-Dihydro-[1,4]dioxino[2,3-b]pyridin-3-yl)-benzyl]-(1,1-dioxo-tetrahydro-1lambda-6-thiophen-3-yl)-methyl-amine], the IC50 was 230 nM in assay [1] and 2.4 nM on human LTA4 hydrolase (setting [2]).
`O=C(CO)N1C[C@@H]2CC[C@H]1CN2Cc1ccc([C@H]2COc3cccnc3O2)cc1` [Example 281, 1-{(1S,4S)-5-[(S)-4-(2,3-Dihydro-[1,4]dioxino[2,3-b]pyridin-3-yl)-benzyl]-2,5-diaza-bicyclo[2.2.2]oct-2-yl}-2-hydroxy-ethanone]: the figures for the IC50 (in assay [1]; on human LTA4 hydrolase (setting [2])) were 37 nM and 0.17 nM, respectively.
`NC(=O)N1CC2(CCN(Cc3ccc([C@H]4COc5cccnc5O4)cc3)CC2)c2ccccc21` [Example 282]: the IC50 came to 61 nM in assay [1] and 0.17 nM on human LTA4 hydrolase.
`NC(=O)NCC1CCN(Cc2ccc([C@H]3COc4cccnc4O3)cc2)CC1` [Example 283, {1-[(S)-4-(2,3-Dihydro-[1,4]dioxino[2,3-b]pyridin-3-yl)-benzyl]-piperidin-4-ylmethyl}-urea]: the IC50 was 540 nM in assay [1] and 0.36 nM at human LTA4 hydrolase (setting [2]).
Consider `N#CCN1CCN(Cc2ccc([C@H]3COc4cccnc4O3)cc2)CC1` [Example 284, {4-[(S)-4-(2,3-Dihydro-[1,4]dioxino[2,3-b]pyridin-3-yl)-benzyl]-piperazin-1-yl}-acetonitrile], for which the IC50 in assay [1] worked out at 290 nM; on human LTA4 hydrolase (setting [2]) it was 3.9 nM.
In the same order, the values of `O=C1OC[C@H]2CN(Cc3ccc([C@H]4COc5cccnc5O4)cc3)CCN12` [Example 285, (R)-7-[(S)-4-(2,3-Dihydro-[1,4]dioxino[2,3-b]pyridin-3-yl)-benzyl]-hexahydro-oxazolo[3,4-a]pyrazin-3-one] are 200 nM and 1 nM.
The matching figures for `O=C(C1CCN(Cc2ccc([C@H]3COc4cccnc4O3)cc2)CC1)N1CC(O)C1` [Example 286, {1-[(S)-4-(2,3-Dihydro-[1,4]dioxino[2,3-b]pyridin-3-yl)-benzyl]-piperidin-4-yl}-(3-hydroxy-azetidin-1-yl)-methanone]: 190 nM and 0.35 nM.
